Measurements from US6248744A, “Method for the treatment of pain, including chronic and female specific pain” (priority 2000, dated 2001).

What was measured:
[1] = system: rats and mice; conditions: cited from earlier work
[2] = system: ganglionic nicotinic receptors; conditions: agonist of ganglionic nicotinic receptors; cited from earlier work
[3] = system: central nicotinic receptor subtypes; conditions: cited from earlier work
[4] = system: animal studies; conditions: cited from earlier work
[5] = system: male and female Sprague Dawley rats; test: Intraplantar capsaicin mechanical hyperalgesia, hindpaw withdrawal threshold with von Frey filaments, intrathecal injection; assay type: in vivo, rat; conditions: for average % reduction in withdrawal threshold over the 2 hours after capsaicin injection: % change from pre-capsaicin threshold, capsaicin 30 μg intraplantar, 50 μg i.t.
Method: Adult male and female Sprague Dawley rats were prepared with insertion of intrathecal catheters as described above. Capsaicin (8-methyl-N-vanillyl nonamide) was prepared in a concentration of 30 μg in 10 μl. Briefly, capsaicin powder was first dissolved in Tween 80, then in isotonic saline and heated to 70° C. The solution obtained was filtered and stored in sterile glass vials. Each group of rats represents 6 males and 6 females tested at the same time and each animal received only one injection in the left plantar surface of the hindpaw. Each animal was lightly anesthetized under halothane and immediately after immobility, received intradermal capsaicin, 30 μg injected through a 28 G needle, in the center of the plantar surface. This dose was chosen because it produces mechanical hyperalgesia lasting at least 2 hours (Gilchrist, H. D., Allard, B. L., and Simone, D. A. Enhanced withdrawal responses to heat and mechanical stimuli following intraplantar injection of capsaicin in rats. Pain 1996;67: 179-188).
Hindpaw withdrawal thresholds were tested before capsaicin injection and every 30 minutes thereafter for 2 hours, using von Frey filaments and the up-down method described above. Care was taken to avoid direct contact of the injection point when measuring withdrawal threshold with the filaments. Intrathecal saline, or (E)-N-methyl-4-(3-pyridinyl)-3-butene-1-amine(50 μg) was injected prior to capsaicin.
Intraplantar injection of capsaicin produced a rapid onset, sustained reduction in withdrawal threshold in both sexes. However, male and female control animals differed in withdrawal threshold at baseline and after capsaicin, and the sexes were therefore compared by % change from pre-capsaicin threshold. By this analysis, the average % reduction in withdrawal threshold over the 2 hours after capsaicin injection was 74+/-5.3% in females and 64+/-6.7% in males (p=0.47, NS).

[6] = system: neuropathic rat hindlimb; test: Neuropathic pain model (injury of spinal nerves L5 and L6), allodynia measured with von Frey filaments, intrathecal injection; assay type: in vivo; conditions: one week after nerve injury
Source text: Analgesic potency of compounds of the present invention can also be tested in animal models of neuropathic or neurogenic pain. One such model resembles the human condition termed causalgia or reflex sympathetic dystrophy (RSD) secondary to injury of a peripheral nerve. This condition is characterized by hyperesthesia (enhanced sensitivity to a natural stimulus), hyperalgesia (abnormal sensitivity to pain), allodynia (hypersensitivity and pain to normally non-painful stimuli, either thermal or tactile), and spontaneous burning pain. In humans, neuropathic pain tends to be chronic and may be debilitating.
Briefly, in the model used, rats are subjected to a surgical procedure, described by Kim et al. (Kim, S. H. and Chung, J. M. (1992) Pain 50:355-363), designed to reproducibly injure peripheral nerves (spinal nerves L5 and L6). These rats develop a hyperesthetic state, which can be measured, using one or more paradigms known in the art. Here, allodynia was measured by stimulation of neuropathic rat hindlimb using nylon filaments having graded degrees of stiffness.
Sex differences in response to (E)-N-methyl-4-(3-pyridinyl)-3-butene-1-amine were tested using the assay described above. Hypersensitivity to light touch (withdrawal threshold to application of calibrated von Frey filaments) was documented one week later. […]

[7] = system: male and female Sprague Dawley rats; test: Latency to hindpaw withdrawal from a focused light heat source after intrathecal injection; assay type: in vivo, rat; conditions: for maximum possible analgesic effect: radiant heat paw withdrawal
Method: Trans-metanicotine was administered via intrathecal catheters inserted in male and female Sprague Dawley rats such that their tips were in the upper lumbar region. Analgesia was determined as an increase in the latency to withdrawal of the hindpaw from a focused light heat source. To prevent injury, duration of 30 seconds was not exceeded. The latency to paw withdrawal was determined both before and after intrathecal injection of trans-metanicotine in these rats, and the data were expressed as % maximum possible effect.

Compound: Clc1ccc(C2CC3CCC2N3)cn1 (stereo not drawn) [Epibatidine]
- analgesic potency relative to morphine [1]: three orders of magnitude higher than morphine
- cardiorespiratory effects [2]: cardiorespiratory effects similar to those of nicotine

Compound: CNCC/C=C/c1cccnc1 [Metanicotine]
- selectivity for central nicotinic receptor subtypes compared to peripheral ganglionic and muscular nicotinic receptors [3]: high selectivity
- antinociceptive effect [4]: dose dependent antinociceptive effect

Compound: CNCC/C=C/c1cccnc1 [trans-metanicotine, (E)-N-methyl-4-(3-pyridinyl)-3-butene-1-amine]
- average % reduction in withdrawal threshold over the 2 hours after capsaicin injection ([5]; female rats): 74+/-5.3%
- analgesia in the capsaicin model, comparison of the sexes ([5]; male and female rats, 50 μg i.t. prior to capsaicin): produced analgesia in this model of pain which was similar between the sexes
- average % reduction in withdrawal threshold over the 2 hours after capsaicin injection ([5]; male rats): 64+/-6.7%
- return of the level of sensitivity to presurgery levels (mean ±SEM) ([6]; female rats, intrathecal, 100 μg): 50±4%
- effect on hypersensitivity to light touch (von Frey withdrawal threshold) ([6]; male rats, intrathecal injection): no effect
- maximum possible analgesic effect ([7]; female rats, i.t. injection): 45%
- antinociceptive response in females relative to males ([7]; i.t. injection, females vs males): twice as great
- duration of the antinociceptive response ([7]; male and female rats, i.t. injection): about 10 minutes
- effect at 60 μg compared with 20 μg (ceiling effect) ([7]; male and female rats, i.t., 60 μg): failed to be more effective
- dose dependence of the effect on paw withdrawal latency to a radiant heat stimulus ([7]; male and female rats, i.t., up to a dose of 20 μg): dose dependent inhibition of paw withdrawal latency
- maximum possible analgesic effect ([7]; male rats, i.t. injection): 20%
